Experimental findings from US11999727B2 (Tango Therapeutics, Inc., priority 2020, dated 2024) are described below.

Where only a bound is given, the exact number is not on record here.

The target of assay [1] is T1, PRMT5 (Homo sapiens, UniProt O14744).
T1 construct: purchased Viva (custom protein)
Nature of the assay: PRMT5 biochemical IC50 assay with no cofactor. The settings on record: PRMT5, no cofactor; read-out: No Cofactor/rel IC50. The text has this: Table 1 indicates IC50 values (μM) against PRMT5 for exemplary compounds in the presence of SAM as cofactor, with no cofactor, and with MTA as cofactor, respectively (columns 4-6). […] Ki values can be calculated from the IC50 values as described in the Examples section. As detailed in the Examples section, for the assay performed in the presence of SAM, IC50=Ki×1.5 (Ki=IC50/1.5).

The target in assay [2] is T1, PRMT5. Kind of assay: PRMT5 biochemical IC50 assay with MTA as cofactor. As to conditions: PRMT5, MTA as cofactor; read-out: MTA IC50.
Assay [3] has as its system HAP1 MTAP-deleted cell line. Kind of assay: Viability assay, MTAP-deleted cell line. The class given is cell-based. As to conditions: Homo sapiens, HAP1, viability assay, MTAP-deleted cell line; read-out: HAP1 MTAP deleted viability. The text has this:
Table 1 additionally indicates IC50 values in a viability assay for the MTAP-deleted cell line (column 10), indicating the effect of treatment with compound on cell survival.

Assay [4] deals with T1, PRMT5. Nature of the assay: PRMT5 biochemical IC50 assay with SAM as cofactor. As to conditions: PRMT5, SAM as cofactor; read-out: SAM IC50.
Assay [5] relates to HAP1 MTAP-intact cell line. Kind of assay: SDMA in-cell western assay, HAP1 MTAP-intact. It is filed as cell-based. The settings on record: Homo sapiens, HAP1, SDMA in-cell western, HAP1 MTAP-intact; read-out: MTAP HAP1 intact IC50. An outline of the steps: (§1)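 Readout: in-cell western detection of SDMA. Cells: HAP1 expressing endogenous MTAP and an MTAP-null HAP1 counterpart. Output: IC50.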

Assay [6] concerns HAP1 MTAP-deleted cell line. Kind of assay: SDMA in-cell western assay, HAP1 MTAP-deleted. The class given is cell-based. The settings on record: for IC50: Homo sapiens, HAP1, SDMA in-cell western, HAP1 MTAP-deleted, read-out: HAP1 MTAP deleted IC50; for MTAP intact/deleted ratio: IC50 ratio HAP1 MTAP-intact / HAP1 MTAP-deleted, SDMA in-cell western. An outline of the steps: as §1

T1 sequence (O14744 whole entry): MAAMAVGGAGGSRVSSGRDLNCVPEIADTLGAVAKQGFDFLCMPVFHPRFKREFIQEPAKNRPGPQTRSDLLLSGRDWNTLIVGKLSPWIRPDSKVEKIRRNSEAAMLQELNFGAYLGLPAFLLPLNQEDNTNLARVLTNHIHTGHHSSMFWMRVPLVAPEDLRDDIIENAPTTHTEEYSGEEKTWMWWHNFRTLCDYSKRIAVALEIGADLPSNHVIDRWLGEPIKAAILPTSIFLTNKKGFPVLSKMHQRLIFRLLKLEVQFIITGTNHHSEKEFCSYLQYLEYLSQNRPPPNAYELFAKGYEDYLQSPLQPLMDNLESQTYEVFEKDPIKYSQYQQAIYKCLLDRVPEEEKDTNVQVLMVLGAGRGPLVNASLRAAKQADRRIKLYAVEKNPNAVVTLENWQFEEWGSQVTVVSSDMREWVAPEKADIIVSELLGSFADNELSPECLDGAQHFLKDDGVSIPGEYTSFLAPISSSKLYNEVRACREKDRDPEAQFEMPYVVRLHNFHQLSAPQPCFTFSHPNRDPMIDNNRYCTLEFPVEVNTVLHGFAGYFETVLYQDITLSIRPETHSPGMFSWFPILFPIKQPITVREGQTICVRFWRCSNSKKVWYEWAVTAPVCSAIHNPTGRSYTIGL
T1 sequence (Q9BQA1 whole entry partner): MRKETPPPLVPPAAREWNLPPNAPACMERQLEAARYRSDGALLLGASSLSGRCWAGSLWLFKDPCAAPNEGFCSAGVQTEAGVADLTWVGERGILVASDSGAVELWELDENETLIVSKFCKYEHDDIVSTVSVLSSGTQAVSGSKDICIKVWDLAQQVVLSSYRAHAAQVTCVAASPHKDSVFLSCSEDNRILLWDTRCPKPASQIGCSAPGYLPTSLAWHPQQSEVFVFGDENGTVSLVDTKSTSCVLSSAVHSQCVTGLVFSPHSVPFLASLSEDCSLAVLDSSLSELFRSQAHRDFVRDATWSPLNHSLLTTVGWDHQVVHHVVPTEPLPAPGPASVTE

On to `C[C@@H]1CC[C@@H](c2ccnc(C(F)(F)F)c2)N(C(=O)C(=O)Nc2cncc(C(N)=O)c2)C1` (racemic) [Compound 221, rac-5-{2-[(2R,5S)-5-Methyl-2-[2-(trifluoromethyl)pyridin-4-yl]piperidin-1-yl]-2-oxoacetamido}pyridine-3-carboxamide], for which the IC50 was 50 to 500 nM at PRMT5 [1]; 50 to 500 nM on PRMT5 [2]; over 10000 nM in assay [3]; 50 to 500 nM on PRMT5 [4]; over 1000 nM in assay [5]; 100 to 1000 nM in assay [6]. In addition, in assay [6], the MTAP intact/deleted ratio result is “A (an IC50 ratio greater than or equal to 10 fold)”.
Regarding `COc1cc([C@@H]2CC[C@@H](C)CN2C(=O)C(=O)Nc2cncc(C(N)=O)c2)ccc1F` (racemic) [Compound 222, rac-5-{2-[(2R,5S)-2-(4-Fluoro-3-methoxyphenyl)-5-methylpiperidin-1-yl]-2-oxoacetamido}pyridine-3-carboxamide], the IC50 at PRMT5 [1] is 50 to 500 nM; at PRMT5 [2] it was under 50 nM; in assay [3], 1000 to 10000 nM; at PRMT5 [4], 50 to 500 nM; in assay [5], over 1000 nM; in assay [6], 100 to 1000 nM. Besides, the MTAP intact/deleted ratio entry in assay [6] was “A (an IC50 ratio greater than or equal to 10 fold)”.
On to `COc1cc([C@@H]2CC[C@@H](C)CN2C(=O)C(=O)Nc2cncc(C(N)=O)c2)cnc1C(F)(F)F` (racemic) [Compound 223, rac-5-{2-[(2R,5S)-2-[5-Methoxy-6-(trifluoromethyl)pyridin-3-yl]-5-methylpiperidin-1-yl]-2-oxoacetamido}pyridine-3-carboxamide], for which the IC50 on PRMT5 [1] is over 500 nM; on PRMT5 [2], 50 to 500 nM; in assay [3], over 10000 nM; on PRMT5 [4], over 500 nM; in assay [5] it was over 1000 nM; in assay [6], over 1000 nM. Besides, the MTAP intact/deleted ratio entry in assay [6] was “C (an IC50 ratio of less than 3 fold)”.
In the case of `C[C@@H]1CC[C@@H](c2ccc(N)nc2)N(C(=O)C(=O)Nc2cncc(C(N)=O)c2)C1` (racemic) [Compound 224, rac-5-{2-[(2R,5S)-2-(6-Aminopyridin-3-yl)-5-methylpiperidin-1-yl]-2-oxoacetamido}pyridine-3-carboxamide], the IC50 on PRMT5 [1] was 50 to 500 nM; on PRMT5 [2] it was under 50 nM; in assay [3], 1000 to 10000 nM; on PRMT5 [4], 50 to 500 nM; in assay [5], over 1000 nM; in assay [6] it was under 100 nM. Further, the MTAP intact/deleted ratio entry in assay [6] is reported as “A (an IC50 ratio greater than or equal to 10 fold)”.
For `COc1cc([C@@H]2CC[C@@H](C)CN2C(=O)C(=O)Nc2cncc(C(N)=O)c2)ccn1` (racemic) [Compound 225, rac-5-{2-[(2R,5S)-2-(2-Methoxypyridin-4-yl)-5-methylpiperidin-1-yl]-2-oxoacetamido}pyridine-3-carboxamide], the IC50 at PRMT5 [1] is 50 to 500 nM; on PRMT5 [2] it was 50 to 500 nM; in assay [3], 1000 to 10000 nM; at PRMT5 [4], 50 to 500 nM; in assay [5], over 1000 nM; in assay [6], under 100 nM. Besides, in assay [6], the MTAP intact/deleted ratio result is on record as “A (an IC50 ratio greater than or equal to 10 fold)”.
Take `C[C@@H]1CC[C@@H](c2cncc(-n3cccn3)c2)N(C(=O)C(=O)Nc2cncc(C(N)=O)c2)C1` (racemic) [Compound 226, rac-5-{2-[(2R,5S)-5-Methyl-2-[5-(1H-pyrazol-1-yl)pyridin-3-yl]piperidin-1-yl]-2-oxoacetamido}pyridine-3-carboxamide]: the IC50 on PRMT5 [1] was over 500 nM; at PRMT5 [2] it was 50 to 500 nM; in assay [3] it was over 10000 nM; at PRMT5 [4], 50 to 500 nM; in assay [5], over 1000 nM; in assay [6], over 1000 nM. For the same molecule, the MTAP intact/deleted ratio result in assay [6] was “C (an IC50 ratio of less than 3 fold)”.
As for `COc1ccc([C@@H]2CC[C@@H](C)CN2C(=O)C(=O)Nc2cncc(C(N)=O)c2)cc1` (racemic) [Compound 228, rac-5-{2-[(2R,5S)-2-(4-Methoxyphenyl)-5-methylpiperidin-1-yl]-2-oxoacetamido}pyridine-3-carboxamide], the IC50 is 50 to 500 nM at PRMT5 [1]; 50 to 500 nM on PRMT5 [2]; 1000 to 10000 nM in assay [3]; 50 to 500 nM on PRMT5 [4]; over 1000 nM in assay [5]; 100 to 1000 nM in assay [6]. Also, in assay [6], the MTAP intact/deleted ratio entry is listed as “A (an IC50 ratio greater than or equal to 10 fold)”.
For `C[C@@H]1C[C@H](c2ccccc2)N(C(=O)C(=O)Nc2cncc(C(N)=O)c2)C[C@@H]1C` (racemic) [Compound 229, 5-[[2-[(2S,4S,5S)-4,5-dimethyl-2-phenyl-1-piperidyl]-2-oxo-acetyl]amino]pyridine-3-carboxamide], the IC50 is over 500 nM on PRMT5 [1]; 50 to 500 nM on PRMT5 [2]; over 10000 nM in assay [3]; over 500 nM on PRMT5 [4]; over 1000 nM in assay [5]; over 1000 nM in assay [6]. Further, in assay [6], the MTAP intact/deleted ratio entry is on record as “B (an IC50 ratio greater than or equal to 3 fold but lower than 10 fold)”.
Take `COc1ccc([C@@H]2CC[C@@H](C)CN2C(=O)C(=O)Nc2cncc(C(N)=O)c2)cc1OC` (racemic) [Compound 230, rac-5-{2-[(2R,5S)-2-(3,4-Dimethoxyphenyl)-5-methylpiperidin-1-yl]-2-oxoacetamido}pyridine-3-carboxamide]: the IC50 on PRMT5 [1] is 50 to 500 nM; on PRMT5 [2], under 50 nM; in assay [3] it was 1000 to 10000 nM; on PRMT5 [4] it was 50 to 500 nM; in assay [5], over 1000 nM; in assay [6] it was 100 to 1000 nM. For the same molecule, the MTAP intact/deleted ratio entry in assay [6] is recorded as “A (an IC50 ratio greater than or equal to 10 fold)”.
As to `C[C@@H]1C[C@H](c2ccccc2)N(C(=O)C(=O)Nc2cncc(C(N)=O)c2)C[C@H]1C` (racemic) [Compound 231, 5-[[2-[(2R,4R,5S)-4,5-dimethyl-2-phenyl-1-piperidyl]-2-oxo-acetyl]amino]pyridine-3-carboxamide], the IC50 on PRMT5 [1] is 50 to 500 nM; on PRMT5 [2], under 50 nM; in assay [3], over 10000 nM; at PRMT5 [4], 50 to 500 nM; in assay [5], over 1000 nM; in assay [6], 100 to 1000 nM. In addition, the MTAP intact/deleted ratio result in assay [6] is “A (an IC50 ratio greater than or equal to 10 fold)”.
In the case of `C[C@@H]1CC[C@@H](c2ccc3nccn3c2)N(C(=O)C(=O)Nc2cncc(C(N)=O)c2)C1` (racemic) [Compound 234, rac-5-{2-[(2R,5S)-2-{Imidazo[1,2-a]pyridin-6-yl}-5-methylpiperidin-1-yl]-2-oxoacetamido}pyridine-3-carboxamide], the IC50 on PRMT5 [1] is 50 to 500 nM; on PRMT5 [2], 50 to 500 nM; in assay [3], over 10000 nM; at PRMT5 [4], 50 to 500 nM; in assay [5], over 1000 nM; in assay [6], over 1000 nM. Besides, in assay [6], the MTAP intact/deleted ratio entry is recorded as “C (an IC50 ratio of less than 3 fold)”.
`Cc1cc(NC(=O)C(=O)N2C[C@H](C)CC[C@H]2c2ccnn2C)cnc1N` (racemic) [Compound 235, N-(6-amino-5-methyl-3-pyridyl)-2-[(2R,5S)-5-methyl-2-(2-methylpyrazol-3-yl)-1-piperidyl]-2-oxo-acetamide]: the IC50 at PRMT5 [1] was 50 to 500 nM; on PRMT5 [2], 50 to 500 nM; in assay [3], over 10000 nM; on PRMT5 [4] it was 50 to 500 nM; in assay [5], over 1000 nM; in assay [6], over 1000 nM. The MTAP intact/deleted ratio entry in assay [6] was “B (an IC50 ratio greater than or equal to 3 fold but lower than 10 fold)”.
With `COc1ccc([C@@H]2CC[C@@H](C)CN2C(=O)C(=O)Nc2cncc(C(N)=O)c2)cc1C#N` (racemic) [Compound 237, rac-5-{2-[(2R,5S)-2-(3-Cyano-4-methoxyphenyl)-5-methylpiperidin-1-yl]-2-oxoacetamido}pyridine-3-carboxamide], the IC50 was 50 to 500 nM at PRMT5 [1]; 50 to 500 nM at PRMT5 [2]; over 10000 nM in assay [3]; 50 to 500 nM at PRMT5 [4]; over 1000 nM in assay [5]; over 1000 nM in assay [6]. Also, the MTAP intact/deleted ratio entry in assay [6] is “B (an IC50 ratio greater than or equal to 3 fold but lower than 10 fold)”.
Regarding `C[C@@H]1CC[C@@H](c2ccc(Cn3ccnc3)cc2)N(C(=O)C(=O)Nc2cncc(C(N)=O)c2)C1` (racemic) [Compound 238, rac-5-{2-[(2R,5S)-2-{4-[(1H-Imidazol-1-yl)methyl]phenyl}-5-methylpiperidin-1-yl]-2-oxoacetamido}pyridine-3-carboxamide], the IC50 is 50 to 500 nM at PRMT5 [1]; under 50 nM at PRMT5 [2]; 1000 to 10000 nM in assay [3]; 50 to 500 nM at PRMT5 [4]; over 1000 nM in assay [5]; 100 to 1000 nM in assay [6]. For the same molecule, the MTAP intact/deleted ratio result in assay [6] is “A (an IC50 ratio greater than or equal to 10 fold)”.
